According to ChEMBL document CHEMBL4665675 (J Med Chem, 2020):

Tests used:
Bos taurus = organism: Bos taurus; assay: Inhibition of bovine brain tubulin polymerization preincubated for 15 mins followed by GTP addition and measured for 30 mins by spectrophotometric method
KB 3-1 = assay: Antiproliferative activity against human KB-31 cells incubated for 96 hrs by spectrophotometric method; format: functional, cell-based; conditions: KB 3-1, 96 h
[1] = Antiproliferative activity against human KB-8511 cells incubated for 96 hrs by spectrophotometric method; format: functional, cell-based; conditions: KB-ChR-8-5-11, 96 h
Tubulin = assay: Inhibition of tubulin polymerization (unknown origin); format: protein-complex assay, Homo sapiens
SF-268 [2] = assay: Cytotoxicity against human SF-268 cells by calcein AM reagent based fluorescence method; format: functional, cell-based
HCT-116 [3] = assay: Cytotoxicity against human HCT-116 cells by cell titer-glow assay; format: functional, cell-based
HCT-116 [4] = assay: Cytotoxicity against human HCT-116 cells by calcein AM reagent based fluorescence method; format: functional, cell-based
SF-268 [5] = assay: Cytotoxicity against human SF-268 cells by cell titer-glow assay; format: functional, cell-based
[6] = Inhibition of calf brain tubulin by turbidimetry; parameters: species or system Bos taurus
P388 = assay: Antiproliferative activity against mouse P388 cells incubated for 36 hrs; format: functional, cell-based; conditions: P388, 36 h
RPMI-7951 = assay: Antiproliferative activity against human RPMI-7951 cells incubated for 36 hrs; format: functional, cell-based; conditions: RPMI-7951, 36 h
HCT-8 = assay: Antiproliferative activity against human HCT-8 cells incubated for 36 hrs; format: functional, cell-based; conditions: HCT-8, 36 h
[7] = Inhibition of bovine brain tubulin polymerization preincubated for 15 mins followed by GTP addition; parameters: species or system Bos taurus
TE-671 = assay: Antiproliferative activity against human TE-671 cells incubated for 36 hrs; format: functional, cell-based; conditions: TE-671, 36 h
A549 [8] = assay: Antiproliferative activity against human A549 cells incubated for 36 hrs; format: functional, cell-based; conditions: A549, 36 h
KB = assay: Antiproliferative activity against human KB cells incubated for 36 hrs; format: functional, cell-based
HeLa = assay: Cytotoxicity against human HeLa cells after 24 to 72 hrs by Cell Titer Blue assay; format: cell-based
[9] = biological target: T1, carboxylesterase 1 (CES1) (Homo sapiens, UniProt P23141); assay: Substrate activity at human carboxylesterase 1 expressed in baculovirus infected Sf9 insect cells assessed as enzyme-catalysed compound cleavage incubated for 2 hrs by HPLC analysis; format: ADME; conditions: read-out: Activity
T1 sequence (P23141 whole entry): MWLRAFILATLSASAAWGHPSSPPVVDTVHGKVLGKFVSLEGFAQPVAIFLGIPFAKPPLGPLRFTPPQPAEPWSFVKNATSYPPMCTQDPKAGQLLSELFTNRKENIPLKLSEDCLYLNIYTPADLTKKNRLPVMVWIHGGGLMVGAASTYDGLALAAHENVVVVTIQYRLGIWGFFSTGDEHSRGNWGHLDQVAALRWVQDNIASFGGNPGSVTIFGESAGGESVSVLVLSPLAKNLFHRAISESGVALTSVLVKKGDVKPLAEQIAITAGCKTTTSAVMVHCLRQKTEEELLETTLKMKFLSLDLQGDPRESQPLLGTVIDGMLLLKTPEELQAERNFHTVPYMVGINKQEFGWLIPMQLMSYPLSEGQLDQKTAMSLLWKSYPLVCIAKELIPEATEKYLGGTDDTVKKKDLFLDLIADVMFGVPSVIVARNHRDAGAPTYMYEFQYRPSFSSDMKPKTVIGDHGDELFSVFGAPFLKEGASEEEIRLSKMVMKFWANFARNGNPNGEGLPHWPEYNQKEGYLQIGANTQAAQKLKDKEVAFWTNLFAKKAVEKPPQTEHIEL

PANC-1 [10] = assay: Antiproliferative activity against human PANC1 cells incubated for 72 hrs by WST assay; format: functional, cell-based; conditions: PANC-1, 72 h
DU-145 = assay: Antiproliferative activity against human DU145 cells incubated for 72 hrs by WST assay; format: functional, cell-based; conditions: DU-145, 72 h
HaCaT = assay: Cytotoxicity against human HaCaT cells incubated for 72 hrs by MTT assay; format: functional, cell-based
PANC-1 [11] = assay: Cytotoxicity against human PANC1 cells incubated for 72 hrs by MTT assay; format: functional, cell-based; conditions: PANC-1, 72 h
[12] = Inhibition of porcine tubulin polymerization by UV/visible spectrophotometry; parameters: species or system Sus scrofa
BXPC-3 = assay: Cytotoxicity against human BxPC-3 cells incubated for 48 hrs by MTT assay; format: functional, cell-based; conditions: BXPC-3, 48 h
[13] = Cytotoxicity against human BHP-1 cells incubated for 48 hrs by MTT assay; format: cell-based; conditions: BHP1, 48 h
MIA PaCa-2 = assay: Cytotoxicity against human Mia PaCa-2 cells incubated for 48 hrs by MTT assay; format: functional, cell-based; conditions: MIA PaCa-2, 48 h
HT-29 = assay: Cytotoxicity against human HT-29 cells incubated for 48 hrs by MTT assay; format: functional, cell-based; conditions: HT-29, 48 h
HEK293 = assay: Cytotoxicity against HEK293 cells incubated for 48 hrs by MTT assay; format: cell-based; conditions: Homo sapiens, HEK293, 48 h
[14] = Cytotoxicity against human HGF-1 cells incubated for 48 hrs by MTT assay; format: cell-based; conditions: HGF1, 48 h
A549 [15] = assay: Cytotoxicity against human A549 cells incubated for 48 hrs by MTT assay; format: functional, cell-based; conditions: A549, 48 h
PC-3 = assay: Cytotoxicity against human PC-3 cells incubated for 48 hrs by MTT assay; format: functional, cell-based; conditions: PC-3, 48 h

Compound: COc1c(CNC(=O)c2ccccc2)c2c(c(OC)c1OC)-c1ccc(OC)c(=O)cc1[C@@H](NC(C)=O)CC2
- inhibition (Bos taurus): 0%
- IC50 (KB 3-1): > 1000 nM
- IC50 [1]: > 1000 nM

Compound: COc1cc2c(c(OC)c1OC)-c1ccc(OC)c(=O)cc1CCC2
- IC50 (Tubulin): 2600 nM

Compound: COc1cc2c(c(OC)c1OC)-c1ccc(OC)c(=O)cc1[C@@H](NC(=O)CN(OC)C1C[C@H](O)[C@H](O)[C@@H](C)O1)CC2 (some centres undefined)
- IC50 (SF-268 [2]): 300 nM
- IC50 (HCT-116 [3]): 300 nM
- IC50 (HCT-116 [4]): 300 nM
- IC50 (SF-268 [5]): 300 nM

Compound: COc1ccc2c(c1)-c1nc(N)ncc1Cc1cc(OC)c(OC)c(OC)c1-2
- IC50 [6]: 670 nM

Compound: CCOC(=O)OC[C@H]1Cc2cc(OC)c(OC)c(OC)c2-c2ccc(SC)c(=O)cc21
- IC50 (P388): 16 nM
- IC50 (RPMI-7951): 0.001 nM
- IC50 (HCT-8): 179 nM
- IC50 [7]: 3700 nM
- IC50 (TE-671): 0.001 nM
- IC50 (A549 [8]): 0.001 nM
- IC50 (KB): 11 nM

Compound: COc1cc2c(c(OC)c1OC)-c1ccc(NCCCC(=O)N[C@H](C(=O)OC3CCCC3)c3ccccc3)c(=O)cc1[C@@H](NC(C)=O)CC2
- IC50 (HeLa): 1240 nM
- metabolised at 2 h [9]: 0%

Compound: COc1cc2c(c(OC)c1OC)-c1ccc(F)cc1C(NC(C)=O)CC2 (centres undefined)
- IC50 (PANC-1 [10]): 7900 nM
- IC50 (DU-145): 760 nM

Compound: COc1cc2c(c(OC)c1OC)-c1ccc(NCCC(O)C(=O)N[C@@H](CC(C)C)C(=O)OC3CCCC3)c(=O)cc1[C@@H](NC(C)=O)CC2 (some centres undefined)
- IC50 (HeLa): 230 nM
- metabolised at 2 h [9]: 13%

Compound: COc1cc2c(c(OC)c1OC)-c1cc(NC(=O)c3ccc(CN[C@@H](CC(C)C)C(=O)OC4CCCC4)cc3)ccc1[C@@H](NC(C)=O)CC2
- IC50 (HeLa): 1480 nM
- metabolised at 2 h [9]: 33%

Compound: COc1cc2c(c(OC)c1OC)-c1ccc(OC)c(=O)cc1[C@@H](NC(=O)CN(OC)C1C[C@@H](O)[C@@H](O)[C@@H](CO)O1)CC2 (some centres undefined)
- IC50 (SF-268 [2]): 300 nM
- IC50 (HCT-116 [3]): 300 nM
- IC50 (HCT-116 [4]): 300 nM
- IC50 (SF-268 [5]): 300 nM

Compound: COc1cc2c(c(OC)c1OC)-c1ccc(OC)c(=O)cc1CC=C2
- IC50 (Tubulin): 1600 nM

Compound: CCCCCCCCCCCCCCCC(=O)OCC(COP(=O)([O-])OCC[N+](C)(C)C)OC(=O)CCCCCCCCCc1n[nH]c(CC(=O)OCC(=O)N[C@H]2CCc3cc(OC)c(OC)c(OC)c3-c3ccc(C(=O)OC)cc32)n1 (some centres undefined)
- IC50 (HaCaT): 400 nM
- IC50 (PANC-1 [11]): 400 nM

Compound: COc1cc2c(c(OC)c1OC)-c1ccc(SC)c(=O)cc1[C@@H](CO)C2
- IC50 (P388): 144 nM
- IC50 (RPMI-7951): 134 nM
- IC50 (HCT-8): 160 nM
- IC50 [7]: 3600 nM
- IC50 (TE-671): 1320 nM
- IC50 (A549 [8]): 240 nM
- IC50 (KB): 144 nM

Compound: C=C1COc2cc3c(cc21)-c1c(cc(OC)c(OC)c1OC)CC[C@@H]3NC(=O)CO
- IC50 (HaCaT): 3 nM
- IC50 (PANC-1 [11]): 16 nM

Compound: COc1cc2c(c(OC)c1OC)-c1ccc(NCCCCCCCC(=O)N[C@@H](CC(C)C)C(=O)OC3CCCC3)c(=O)cc1[C@@H](NC(C)=O)CC2
- IC50 (HeLa): 4930 nM
- metabolised at 2 h [9]: 76%

Compound: COc1cc2c(c(OC)c1OC)-c1ccc(OC)c(=O)cc1[C@@H](NC(=O)CN(OC)C1C[C@@H](O)[C@@H](O)CO1)CC2 (some centres undefined)
- IC50 (SF-268 [2]): 300 nM
- IC50 (HCT-116 [3]): 300 nM
- IC50 (HCT-116 [4]): 300 nM
- IC50 (SF-268 [5]): 300 nM

Compound: C=C1COc2cc3c(cc21)-c1c(cc(OC)c(OC)c1OC)CC[C@@H]3NC(=O)COC(=O)Cc1nc(CCCCCCCCCC(=O)OC(COC(=O)CCCCCCCCCCCCCCC)COP(=O)([O-])OCC[N+](C)(C)C)n[nH]1 (some centres undefined)
- IC50 (HaCaT): 400 nM
- IC50 (PANC-1 [11]): 400 nM

Compound: COc1ccc2c(c1O)COCc1cc(OC)c(OC)c(OC)c1-2
- IC50 [12]: 1000 nM

Compound: COc1ccc2c(c1)N(C(C)=O)CCCc1cc(OC)c(OC)c(OC)c1-2
- IC50 [6]: 2300 nM

Compound: COc1cc2c(c(OC)c1OC)-c1ccc(Nc3ccc(Cl)c(C(F)(F)F)c3)c(=O)cc1[C@@H](NC(C)=O)CC2
- IC50 (BXPC-3): 35 nM
- IC50 [13]: 35 nM
- IC50 (MIA PaCa-2): 35 nM
- IC50 (HT-29): 35 nM
- IC50 (HEK293): 35 nM
- IC50 [14]: 35 nM
- IC50 (A549 [15]): 35 nM
- IC50 (PC-3): 35 nM

Compound: COc1ccc2c(c1)-c1n[nH]cc1Cc1cc(OC)c(OC)c(OC)c1-2
- IC50 [6]: 470 nM
